Measurements published in ChEMBL document CHEMBL3108715, “Pan-histone demethylase inhibitors simultaneously targeting Jumonji C and lysine-specific demethylases display high anticancer activities” (J Med Chem, 2014).
Activity calls are given as the source filed them. No cut-off for these calls is given here.

Experiments:
[1] = system: LNCaP; experiment: Cytotoxicity against human LNCAP cells at 50 uM after 72 hrs; format: functional, cell-based
[2] = target: Hypoxia-inducible factor 1-alpha inhibitor (Homo sapiens, UniProt Q9NWT6); experiment: Inhibition of FIH (unknown origin) by mass spectrometry
Sequence of Hypoxia-inducible factor 1-alpha inhibitor (Q9NWT6 whole entry): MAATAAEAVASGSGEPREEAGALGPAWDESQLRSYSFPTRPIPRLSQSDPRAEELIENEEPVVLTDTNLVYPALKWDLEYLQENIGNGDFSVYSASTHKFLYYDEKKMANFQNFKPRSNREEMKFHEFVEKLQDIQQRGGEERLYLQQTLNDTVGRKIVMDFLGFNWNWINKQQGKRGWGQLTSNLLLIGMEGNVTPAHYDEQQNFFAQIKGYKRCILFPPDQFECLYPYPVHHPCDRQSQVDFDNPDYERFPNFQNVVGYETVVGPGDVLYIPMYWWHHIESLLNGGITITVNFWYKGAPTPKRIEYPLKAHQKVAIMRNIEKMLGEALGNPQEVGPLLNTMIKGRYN

[3] = system: LNCaP; experiment: Inhibition of LSD1/JmjC in human LNCAP cells assessed as increase in H3K4me2/3 level at 50 uM by Western blotting analysis; format: cell-based
[4] = Induction of apoptosis in human MePR cells assessed as accumulation at pre-G1 phase at 50 uM after 24 hrs by propidium iodide staining-based FACS analysis (reference value: 8.4%); format: cell-based
[5] = system: HCT-116; experiment: Cell cycle arrest in human HCT116 cells assessed as accumulation at pre-G1 phase at 50 uM after 30 hrs by propidium iodide staining-based FACS analysis; format: functional
[6] = system: HCT-116; experiment: Cytotoxicity against human HCT116 cells at 50 uM after 6 hrs; format: functional, cell-based
[7] = system: LNCaP; experiment: Inhibition of LSD1/JmjC in human LNCAP cells assessed as increase in H3K9me3 level at 50 uM by Western blotting analysis; format: cell-based
[8] = system: HCT-116; experiment: Inhibition of LSD1/JmjC in human HCT116 cells assessed as increase in H3K4me2/3 level at 50 uM by Western blotting analysis; format: cell-based
[9] = system: HCT-116; experiment: Antimigratory activity against human HCT116 cells at 50 uM after 72 hrs; format: functional, cell-based
[10] = system: LNCaP; experiment: Induction of apoptosis in human LNCAP cells at 10 to 100 uM after 48 hrs by propidium iodide staining-based FACS analysis; format: functional, cell-based
[11] = system: HCT-116; experiment: Inhibition of LSD1/JmjC in human HCT116 cells assessed as increase in H3K9me3 level at 50 uM by Western blotting analysis; format: cell-based
[12] = target: Egl nine homolog 1 (Homo sapiens, UniProt Q9GZT9); experiment: Inhibition of PHD2 (unknown origin) by mass spectrometry
Sequence of Egl nine homolog 1 (Q9GZT9 whole entry): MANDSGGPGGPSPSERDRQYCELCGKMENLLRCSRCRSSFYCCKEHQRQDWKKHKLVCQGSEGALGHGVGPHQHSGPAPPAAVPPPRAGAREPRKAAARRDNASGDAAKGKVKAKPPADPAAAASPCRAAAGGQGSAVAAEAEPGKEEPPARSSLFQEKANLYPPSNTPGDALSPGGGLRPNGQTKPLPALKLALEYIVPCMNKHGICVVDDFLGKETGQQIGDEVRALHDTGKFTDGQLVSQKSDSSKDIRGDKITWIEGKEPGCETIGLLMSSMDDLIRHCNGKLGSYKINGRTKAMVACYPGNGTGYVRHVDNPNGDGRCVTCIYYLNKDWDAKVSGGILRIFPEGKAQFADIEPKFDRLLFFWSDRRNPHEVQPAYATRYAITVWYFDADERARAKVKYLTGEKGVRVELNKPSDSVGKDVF

[13] = system: LNCaP; experiment: Antimigratory activity against human LNCAP cells at 50 uM after 72 hrs; format: functional, cell-based
[14] = system: HCT-116; experiment: Induction of apoptosis in human HCT116 cells at 10 to 100 uM after 48 hrs by propidium iodide staining-based FACS analysis; format: functional, cell-based

SMILES	Activity [1]	IC50 [2] [µM]	inhibition [3]	Activity [4] [%]	Activity [5]	Activity [6]	inhibition [7]	inhibition [8]	Activity [9]	Activity [10]	inhibition [11]	IC50 [12] [µM]	Activity [13]	Activity [14]
Cl.N[C@@H]1C[C@H]1c1ccc(NC(=O)c2ccc(O)c3ncccc23)cc1 (relative stereo)	Active	25	Active	4.2	Active	Active	Active	Active	inactive	Active	Active	8.5	inactive	Active
N[C@@H]1C[C@H]1c1ccc(NC(=O)c2ccnc(-c3cc(C(=O)O)ccn3)c2)cc1 (relative stereo)	–	> 100	–	–	–	–	–	–	–	–	–	278	–	–
COC(=O)c1ccnc(-c2cc(C(=O)Nc3ccc([C@@H]4C[C@H]4N)cc3)ccn2)c1.Cl (relative stereo)	Active	–	Active	12.8	Active	Active	Active	Active	Active	Active	Active	–	inactive	Active
